Reference: the kinase profiling compilation of Christmann-Franck et al. (2016)

Key:
Test in all cases: radiometric filter-binding kinase assay
[1] = target: EEF2K (human) (UniProt O00418)
[2] = target: MYLK (human) (UniProt Q15746)
[3] = target: GSK3B (human) (UniProt P49841)
[4] = target: YES1 (human) (UniProt P07947)
[5] = target: SYK (human) (UniProt P43405)
[6] = target: SRC (human) (UniProt P12931)
[7] = target: AURKB (human) (UniProt Q96GD4)
[8] = target: FLT1 (human) (UniProt P17948)
[9] = target: IGF1R (human) (UniProt P08069)
[10] = target: MAPK9 (human) (UniProt P45984)
[11] = target: CSNK1D (human) (UniProt P48730)
[12] = target: PAK6 (human) (UniProt Q9NQU5)
[13] = target: MAPK1 (human) (UniProt P28482)
[14] = target: HIPK2 (human) (UniProt Q9H2X6)
[15] = target: PKN2 (human) (UniProt Q16513)
[16] = target: MELK (human) (UniProt Q14680)
[17] = tested on: AKT2 (human), P31751 [S474D]
[18] = target: PRKCZ (human) (UniProt Q05513)
[19] = target: CHEK1 (human) (UniProt O14757)
[20] = target: FGFR1 (human) (UniProt P11362)
[21] = target: MAPK13 (human) (UniProt O15264)

Sequence of PKN2 (human) (Q16513 whole entry, looked up): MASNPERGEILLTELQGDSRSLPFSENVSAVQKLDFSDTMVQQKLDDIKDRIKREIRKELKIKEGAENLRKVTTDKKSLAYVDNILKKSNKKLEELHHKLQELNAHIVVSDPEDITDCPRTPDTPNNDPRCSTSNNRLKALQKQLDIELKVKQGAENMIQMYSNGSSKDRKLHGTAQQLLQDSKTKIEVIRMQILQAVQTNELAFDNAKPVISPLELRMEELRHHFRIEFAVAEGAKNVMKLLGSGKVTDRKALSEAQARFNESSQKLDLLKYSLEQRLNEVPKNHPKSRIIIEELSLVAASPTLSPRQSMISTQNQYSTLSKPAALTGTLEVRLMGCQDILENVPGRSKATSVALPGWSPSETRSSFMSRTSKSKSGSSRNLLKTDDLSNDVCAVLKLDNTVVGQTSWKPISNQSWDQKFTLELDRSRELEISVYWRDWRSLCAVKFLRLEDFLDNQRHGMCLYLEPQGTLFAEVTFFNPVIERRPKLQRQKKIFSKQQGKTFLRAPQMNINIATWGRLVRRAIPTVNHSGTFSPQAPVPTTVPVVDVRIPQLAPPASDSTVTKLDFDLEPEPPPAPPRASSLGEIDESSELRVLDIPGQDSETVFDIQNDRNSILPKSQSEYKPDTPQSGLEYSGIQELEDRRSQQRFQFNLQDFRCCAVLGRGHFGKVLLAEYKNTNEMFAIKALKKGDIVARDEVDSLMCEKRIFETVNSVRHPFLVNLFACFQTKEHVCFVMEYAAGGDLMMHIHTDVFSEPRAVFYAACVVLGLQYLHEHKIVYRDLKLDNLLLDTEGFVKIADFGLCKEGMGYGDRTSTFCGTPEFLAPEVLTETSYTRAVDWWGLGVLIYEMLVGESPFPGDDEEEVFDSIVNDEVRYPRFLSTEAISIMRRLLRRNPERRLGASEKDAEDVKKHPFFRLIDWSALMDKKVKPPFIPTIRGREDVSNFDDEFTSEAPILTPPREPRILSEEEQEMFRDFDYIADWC
Sequence of HIPK2 (human) (Q9H2X6 whole entry, looked up): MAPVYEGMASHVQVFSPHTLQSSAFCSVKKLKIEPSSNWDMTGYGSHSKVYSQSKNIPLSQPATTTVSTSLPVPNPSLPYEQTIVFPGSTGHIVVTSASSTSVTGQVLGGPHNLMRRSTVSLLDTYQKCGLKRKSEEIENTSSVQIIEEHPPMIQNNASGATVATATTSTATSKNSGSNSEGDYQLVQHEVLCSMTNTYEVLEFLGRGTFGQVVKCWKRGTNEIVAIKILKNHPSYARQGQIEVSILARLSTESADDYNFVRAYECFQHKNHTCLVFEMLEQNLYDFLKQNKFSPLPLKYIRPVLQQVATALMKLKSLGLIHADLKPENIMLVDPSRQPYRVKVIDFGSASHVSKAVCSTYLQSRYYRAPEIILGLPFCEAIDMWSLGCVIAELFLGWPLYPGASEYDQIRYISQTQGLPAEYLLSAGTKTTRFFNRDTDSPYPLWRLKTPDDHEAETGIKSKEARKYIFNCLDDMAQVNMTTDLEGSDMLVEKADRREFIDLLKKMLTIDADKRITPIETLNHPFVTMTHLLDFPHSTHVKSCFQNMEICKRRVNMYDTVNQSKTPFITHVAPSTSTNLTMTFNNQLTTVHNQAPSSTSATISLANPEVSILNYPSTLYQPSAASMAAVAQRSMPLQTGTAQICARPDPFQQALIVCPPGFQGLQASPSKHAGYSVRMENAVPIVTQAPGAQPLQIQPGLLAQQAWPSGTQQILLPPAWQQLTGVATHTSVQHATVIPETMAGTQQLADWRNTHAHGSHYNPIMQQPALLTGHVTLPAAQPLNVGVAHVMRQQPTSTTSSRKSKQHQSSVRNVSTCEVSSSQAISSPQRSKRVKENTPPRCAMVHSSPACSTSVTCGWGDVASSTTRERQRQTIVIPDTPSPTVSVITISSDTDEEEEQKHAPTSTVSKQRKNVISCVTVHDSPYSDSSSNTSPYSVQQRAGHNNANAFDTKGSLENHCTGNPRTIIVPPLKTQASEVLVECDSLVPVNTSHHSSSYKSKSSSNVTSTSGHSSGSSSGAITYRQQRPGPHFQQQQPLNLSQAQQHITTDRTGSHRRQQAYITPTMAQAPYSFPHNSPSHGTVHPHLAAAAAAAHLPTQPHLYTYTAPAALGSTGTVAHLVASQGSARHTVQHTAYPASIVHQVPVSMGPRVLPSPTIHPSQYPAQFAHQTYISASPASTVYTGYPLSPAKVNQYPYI
Sequence of YES1 (human) (P07947 whole entry, looked up): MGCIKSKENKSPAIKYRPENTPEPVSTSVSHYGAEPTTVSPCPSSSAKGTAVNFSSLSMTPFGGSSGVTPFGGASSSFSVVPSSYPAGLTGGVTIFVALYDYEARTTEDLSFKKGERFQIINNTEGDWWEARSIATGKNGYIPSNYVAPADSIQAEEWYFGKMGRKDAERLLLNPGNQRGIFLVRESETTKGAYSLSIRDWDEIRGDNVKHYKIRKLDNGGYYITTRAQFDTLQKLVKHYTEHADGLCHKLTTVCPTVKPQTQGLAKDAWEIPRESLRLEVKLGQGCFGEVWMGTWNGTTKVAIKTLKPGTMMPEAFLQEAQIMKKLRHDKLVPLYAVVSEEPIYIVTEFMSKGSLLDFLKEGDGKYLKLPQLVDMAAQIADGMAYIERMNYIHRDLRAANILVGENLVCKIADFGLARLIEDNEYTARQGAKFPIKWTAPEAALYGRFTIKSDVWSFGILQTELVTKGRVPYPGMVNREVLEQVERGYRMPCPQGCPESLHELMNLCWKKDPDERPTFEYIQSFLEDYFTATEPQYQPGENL
Sequence of MELK (human) (Q14680 whole entry, looked up): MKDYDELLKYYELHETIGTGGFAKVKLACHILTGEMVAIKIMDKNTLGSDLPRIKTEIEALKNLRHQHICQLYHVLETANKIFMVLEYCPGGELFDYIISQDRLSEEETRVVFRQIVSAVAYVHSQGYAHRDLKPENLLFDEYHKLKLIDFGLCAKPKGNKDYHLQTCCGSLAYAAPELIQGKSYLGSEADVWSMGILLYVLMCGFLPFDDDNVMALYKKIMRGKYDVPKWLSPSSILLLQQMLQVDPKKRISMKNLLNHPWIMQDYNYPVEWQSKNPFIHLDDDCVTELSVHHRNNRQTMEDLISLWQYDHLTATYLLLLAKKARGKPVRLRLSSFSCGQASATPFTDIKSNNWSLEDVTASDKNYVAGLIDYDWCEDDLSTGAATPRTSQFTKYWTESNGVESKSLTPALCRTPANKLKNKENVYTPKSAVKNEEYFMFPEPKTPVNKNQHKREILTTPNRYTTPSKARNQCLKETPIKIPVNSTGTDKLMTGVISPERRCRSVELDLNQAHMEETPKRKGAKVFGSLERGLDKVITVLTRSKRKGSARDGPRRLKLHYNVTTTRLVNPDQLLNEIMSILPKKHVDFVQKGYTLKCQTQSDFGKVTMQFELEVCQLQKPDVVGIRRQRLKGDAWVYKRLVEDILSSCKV
Sequence of PAK6 (human) (Q9NQU5 whole entry, looked up): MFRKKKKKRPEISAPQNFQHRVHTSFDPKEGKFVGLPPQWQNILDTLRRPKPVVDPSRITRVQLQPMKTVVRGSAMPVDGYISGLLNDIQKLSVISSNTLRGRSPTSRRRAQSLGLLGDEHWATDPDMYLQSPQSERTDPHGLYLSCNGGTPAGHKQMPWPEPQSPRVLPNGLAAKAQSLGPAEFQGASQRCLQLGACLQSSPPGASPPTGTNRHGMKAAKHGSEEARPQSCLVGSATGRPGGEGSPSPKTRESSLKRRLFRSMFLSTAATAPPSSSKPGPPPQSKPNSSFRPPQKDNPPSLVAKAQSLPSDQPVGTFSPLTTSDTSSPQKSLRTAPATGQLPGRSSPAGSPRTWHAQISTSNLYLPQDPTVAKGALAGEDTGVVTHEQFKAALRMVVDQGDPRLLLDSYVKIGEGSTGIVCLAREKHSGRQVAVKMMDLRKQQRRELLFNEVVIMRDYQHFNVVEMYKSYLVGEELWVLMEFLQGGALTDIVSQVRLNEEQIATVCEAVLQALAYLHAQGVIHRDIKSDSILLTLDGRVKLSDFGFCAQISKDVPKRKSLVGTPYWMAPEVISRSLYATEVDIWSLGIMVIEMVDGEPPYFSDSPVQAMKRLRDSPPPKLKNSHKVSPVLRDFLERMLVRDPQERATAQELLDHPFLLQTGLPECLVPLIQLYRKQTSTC
Sequence of CSNK1D (human) (P48730 whole entry, looked up): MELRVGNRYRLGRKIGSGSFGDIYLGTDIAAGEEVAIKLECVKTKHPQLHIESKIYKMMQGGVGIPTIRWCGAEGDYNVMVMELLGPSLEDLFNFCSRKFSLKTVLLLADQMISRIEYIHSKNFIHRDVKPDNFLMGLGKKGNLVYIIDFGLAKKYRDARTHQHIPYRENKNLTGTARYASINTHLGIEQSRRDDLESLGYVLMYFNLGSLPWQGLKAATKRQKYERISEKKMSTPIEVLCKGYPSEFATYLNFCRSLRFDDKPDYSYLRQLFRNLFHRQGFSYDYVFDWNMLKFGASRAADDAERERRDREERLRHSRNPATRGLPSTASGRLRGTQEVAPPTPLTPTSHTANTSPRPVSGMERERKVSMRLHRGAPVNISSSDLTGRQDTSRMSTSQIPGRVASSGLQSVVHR
Sequence of SRC (human) (P12931 whole entry, looked up): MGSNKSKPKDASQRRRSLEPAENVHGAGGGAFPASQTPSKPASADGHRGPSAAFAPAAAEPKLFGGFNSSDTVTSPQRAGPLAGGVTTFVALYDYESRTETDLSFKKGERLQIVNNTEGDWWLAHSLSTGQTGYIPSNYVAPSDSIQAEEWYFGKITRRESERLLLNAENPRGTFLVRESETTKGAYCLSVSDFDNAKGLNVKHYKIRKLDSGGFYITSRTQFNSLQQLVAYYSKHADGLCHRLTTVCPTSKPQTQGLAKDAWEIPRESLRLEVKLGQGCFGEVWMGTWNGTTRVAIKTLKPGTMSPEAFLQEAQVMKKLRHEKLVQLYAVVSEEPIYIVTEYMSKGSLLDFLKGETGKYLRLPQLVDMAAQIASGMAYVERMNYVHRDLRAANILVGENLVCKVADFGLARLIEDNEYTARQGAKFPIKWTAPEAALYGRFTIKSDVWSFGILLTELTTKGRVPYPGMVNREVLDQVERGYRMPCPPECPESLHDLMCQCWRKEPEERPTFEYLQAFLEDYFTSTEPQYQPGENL

CCc1cncnc1N1CCN(Cc2nc3cc(C(F)(F)F)ccc3[nH]2)CC1
residual activity ([1]; compound 0.1 µM): 90%
residual activity ([1]; compound 1.0 µM): 73%
residual activity ([1]; compound 10.0 µM): 78%
residual activity ([2]; compound 0.1 µM): 95%
residual activity ([2]; compound 1.0 µM): 79%
residual activity ([2]; compound 10.0 µM): 87%
residual activity ([3]; compound 0.1 µM): 87%
residual activity ([3]; compound 1.0 µM): 96%
residual activity ([3]; compound 10.0 µM): 92%
residual activity ([4]; compound 0.1 µM): 98%
residual activity ([4]; compound 1.0 µM): 84%
residual activity ([4]; compound 10.0 µM): 76%
residual activity ([5]; compound 0.1 µM): 121%
residual activity ([5]; compound 1.0 µM): 100%
residual activity ([5]; compound 10.0 µM): 91%
residual activity ([6]; compound 0.1 µM): 103%
residual activity ([6]; compound 10.0 µM): 92%
residual activity ([7]; compound 0.1 µM): 89%
residual activity ([7]; compound 1.0 µM): 87%
residual activity ([7]; compound 10.0 µM): 49%
residual activity ([8]; compound 0.1 µM): 97%
residual activity ([8]; compound 1.0 µM): 83%
residual activity ([8]; compound 10.0 µM): 37%
residual activity ([9]; compound 0.1 µM): 72%
residual activity ([9]; compound 1.0 µM): 95%
residual activity ([9]; compound 10.0 µM): 82%
residual activity ([10]; compound 0.1 µM): 92%
residual activity ([10]; compound 1.0 µM): 93%
residual activity ([10]; compound 10.0 µM): 98%
residual activity ([11]; compound 0.1 µM): 96%
residual activity ([11]; compound 1.0 µM): 93%
residual activity ([11]; compound 10.0 µM): 71%
residual activity ([12]; compound 0.1 µM): 99%
residual activity ([12]; compound 1.0 µM): 83%
residual activity ([12]; compound 10.0 µM): 86%
residual activity ([13]; compound 0.1 µM): 93%
residual activity ([13]; compound 1.0 µM): 85%
residual activity ([13]; compound 10.0 µM): 86%
residual activity ([14]; compound 0.1 µM): 108%
residual activity ([14]; compound 1.0 µM): 86%
residual activity ([14]; compound 10.0 µM): 88%
residual activity ([15]; compound 0.1 µM): 95%
residual activity ([15]; compound 1.0 µM): 86%
residual activity ([15]; compound 10.0 µM): 84%
residual activity ([16]; compound 0.1 µM): 94%
residual activity ([16]; compound 1.0 µM): 101%
residual activity ([16]; compound 10.0 µM): 87%
residual activity ([17]; compound 0.1 µM): 74%
residual activity ([17]; compound 1.0 µM): 73%
residual activity ([17]; compound 10.0 µM): 60%
residual activity ([18]; compound 0.1 µM): 78%
residual activity ([18]; compound 1.0 µM): 75%
residual activity ([18]; compound 10.0 µM): 70%
residual activity ([19]; compound 0.1 µM): 90%
residual activity ([19]; compound 1.0 µM): 83%
residual activity ([19]; compound 10.0 µM): 83%
residual activity ([20]; compound 0.1 µM): 91%
residual activity ([20]; compound 1.0 µM): 92%
residual activity ([20]; compound 10.0 µM): 63%
residual activity ([21]; compound 0.1 µM): 89%
residual activity ([21]; compound 1.0 µM): 82%
residual activity ([21]; compound 10.0 µM): 91%

O=C1NC(=S)N[C@@H]1Cc1c[nH]c2ccccc12
residual activity ([1]; compound 1.0 µM): 75%
residual activity ([1]; compound 10.0 µM): 85%
residual activity ([2]; compound 1.0 µM): 70%
residual activity ([2]; compound 10.0 µM): 94%
residual activity ([3]; compound 1.0 µM): 99%
residual activity ([3]; compound 10.0 µM): 92%
residual activity ([4]; compound 1.0 µM): 85%
residual activity ([4]; compound 10.0 µM): 96%
residual activity ([5]; compound 1.0 µM): 92%
residual activity ([5]; compound 10.0 µM): 116%
residual activity ([6]; compound 1.0 µM): 94%
residual activity ([6]; compound 10.0 µM): 99%
residual activity ([7]; compound 1.0 µM): 100%
residual activity ([7]; compound 10.0 µM): 106%
residual activity ([8]; compound 1.0 µM): 89%
residual activity ([9]; compound 1.0 µM): 113%
residual activity ([9]; compound 10.0 µM): 100%
residual activity ([10]; compound 1.0 µM): 91%
residual activity ([10]; compound 10.0 µM): 95%
residual activity ([11]; compound 1.0 µM): 105%
residual activity ([11]; compound 10.0 µM): 115%
residual activity ([12]; compound 1.0 µM): 87%
residual activity ([12]; compound 10.0 µM): 98%
residual activity ([13]; compound 1.0 µM): 80%
residual activity ([13]; compound 10.0 µM): 88%
residual activity ([14]; compound 10.0 µM): 92%
residual activity ([15]; compound 1.0 µM): 87%
residual activity ([15]; compound 10.0 µM): 82%
residual activity ([16]; compound 1.0 µM): 84%
residual activity ([16]; compound 10.0 µM): 100%
residual activity ([17]; compound 1.0 µM): 83%
residual activity ([17]; compound 10.0 µM): 97%
residual activity ([18]; compound 1.0 µM): 77%
residual activity ([18]; compound 10.0 µM): 83%
residual activity ([19]; compound 10.0 µM): 81%
residual activity ([20]; compound 1.0 µM): 83%
residual activity ([20]; compound 10.0 µM): 80%
residual activity ([21]; compound 1.0 µM): 94%
residual activity ([21]; compound 10.0 µM): 98%

O=C1Nc2nc(-c3c(O)cccc3OCC3CC3)cc(C3CCCNC3)c2CO1 (stereo not drawn)
residual activity ([1]; compound 1.0 µM): 88%
residual activity ([1]; compound 10.0 µM): 67%
residual activity ([2]; compound 1.0 µM): 76%
residual activity ([2]; compound 10.0 µM): 37%
residual activity ([3]; compound 1.0 µM): 126%
residual activity ([3]; compound 10.0 µM): 99%
residual activity ([4]; compound 1.0 µM): 94%
residual activity ([4]; compound 10.0 µM): 49%
residual activity ([5]; compound 1.0 µM): 106%
residual activity ([5]; compound 10.0 µM): 91%
residual activity ([6]; compound 1.0 µM): 91%
residual activity ([6]; compound 10.0 µM): 83%
residual activity ([8]; compound 1.0 µM): 112%
residual activity ([8]; compound 10.0 µM): 116%
residual activity ([9]; compound 1.0 µM): 80%
residual activity ([10]; compound 1.0 µM): 90%
residual activity ([10]; compound 10.0 µM): 93%
residual activity ([11]; compound 1.0 µM): 81%
residual activity ([11]; compound 10.0 µM): 43%
residual activity ([12]; compound 1.0 µM): 72%
residual activity ([12]; compound 10.0 µM): 78%
residual activity ([13]; compound 1.0 µM): 81%
residual activity ([13]; compound 10.0 µM): 74%
residual activity ([14]; compound 1.0 µM): 84%
residual activity ([14]; compound 10.0 µM): 34%
residual activity ([15]; compound 1.0 µM): 69%
residual activity ([15]; compound 10.0 µM): 36%
residual activity ([16]; compound 10.0 µM): 58%
residual activity ([17]; compound 1.0 µM): 88%
residual activity ([17]; compound 10.0 µM): 61%
residual activity ([18]; compound 10.0 µM): 10%
residual activity ([19]; compound 1.0 µM): 102%
residual activity ([19]; compound 10.0 µM): 88%
residual activity ([20]; compound 1.0 µM): 96%
residual activity ([20]; compound 10.0 µM): 79%
residual activity ([21]; compound 1.0 µM): 88%
residual activity ([21]; compound 10.0 µM): 73%
